Read-outs that look alike come from different tables or passages of the source.

What is called inhibition is the change of the read-out against control, counted positive when it falls.

Assay [1] concerns the target T1, protein kinases of the Z-LYTE panel (Homo sapiens, UniProt O00418).
T1 sequence (O00418 1-725): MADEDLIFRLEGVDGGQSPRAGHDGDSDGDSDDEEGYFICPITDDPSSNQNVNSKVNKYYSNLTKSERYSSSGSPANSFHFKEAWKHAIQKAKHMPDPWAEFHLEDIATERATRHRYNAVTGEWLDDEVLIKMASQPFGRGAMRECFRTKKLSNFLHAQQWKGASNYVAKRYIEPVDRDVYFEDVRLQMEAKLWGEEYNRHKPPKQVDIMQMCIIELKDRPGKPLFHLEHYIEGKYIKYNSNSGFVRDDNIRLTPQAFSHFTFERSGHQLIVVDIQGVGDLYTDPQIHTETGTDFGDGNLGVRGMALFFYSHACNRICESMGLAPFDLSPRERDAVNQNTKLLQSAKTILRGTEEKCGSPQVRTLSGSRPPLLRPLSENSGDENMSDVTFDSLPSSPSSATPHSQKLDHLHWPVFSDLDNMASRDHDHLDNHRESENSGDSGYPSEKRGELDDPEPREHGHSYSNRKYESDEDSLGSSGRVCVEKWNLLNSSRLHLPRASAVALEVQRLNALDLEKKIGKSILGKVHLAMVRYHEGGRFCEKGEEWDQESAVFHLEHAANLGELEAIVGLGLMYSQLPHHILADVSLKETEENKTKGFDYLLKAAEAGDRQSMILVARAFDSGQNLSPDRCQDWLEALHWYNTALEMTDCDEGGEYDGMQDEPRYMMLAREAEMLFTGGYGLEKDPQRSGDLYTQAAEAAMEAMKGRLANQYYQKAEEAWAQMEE
The experiment in a line: SelectScreen Z-LYTE kinase activity assay (SI Table 6). Type of assay: biochemical. Here is the method:
(§1) 133 protein kinases and 7 lipid kinases were counterscreened, with 1938 used at 1 μM, using the Adapta, Lantha and Z-LYTE assays (SelectScreen Kinase Profiling Service; Thermofisher – experimental details of these assays can be found here: https://www.thermofisher.com/uk/en/home/industrial/pharma-biopharma/drug-discovery-development/target-and-lead-identification-and-validation/kinasebiology/kinase-activity-assays.html. The tree represention in KinMap[59] generated courtesy of Cell Signaling Technology, Inc. (www.cellsignal.com). mTORC1 (mTOR/RAPTOR/LST8) protein complex and ATM kinase and substrates were produced as previously described[57],[60]. Screening of 1938 was conducted using SuperSep Phos-Tag 50 μmol/l 100 x 100 x 6.6 mm 17-well (192-18001/199-18011) gels. For ATM assays, 100 nM ATM was incubated for 30 min at 30°C with 5 μM GST-p53 and 1 mM ATP, in the absence or presence of 200 μM 1938 in ATM Kinase Buffer (50 mM HEPES pH 7.5, 100 mM NaCl, 10% glycerol, 2 mM […], 5 mM MgCl2). As a positive control for ATM activation, the same reaction was carried out with 100 nM ATM/5 μM GST-p53/1 mM ATP in the presence of 100 nM Mre11-Rad50-Nbs1 (MRN) complex, a known activator of ATM[61]. For mTORC1 assays, 50 nM mTORC1 complex (mTOR/LST8/RAPTOR) was incubated for 3 h at 30°C with 15 μM 4E-BP1, 10 mM MgCl2 and 250 μM ATP, in the absence or presence of 200 μM 1938. As a ‘positive’ control, a higher concentration (150 nM) of mTORC1 complex (mTOR/LST8/RAPTOR) was incubated for 3 h at 30°C with 15 μM 4E-BP1, 10 mM MgCl2 and 250 μM ATP. Kinase reactions were quenched by addition of SDS-PAGE Loading Buffer (as per manufacturer’s instructions) and freezing at -20°C before being run on the Phos-tag gels at 150 V for 90 min. Gels were then stained using InstantBlue™ Coomassie, and quantified using BioRad Image Lab Software. Kinase assays were carried out in triplicate.

Assay [2] deals with T2, protein kinases of the Z-LYTE panel (Homo sapiens, UniProt P51813).
T2 sequence (P51813 1-675): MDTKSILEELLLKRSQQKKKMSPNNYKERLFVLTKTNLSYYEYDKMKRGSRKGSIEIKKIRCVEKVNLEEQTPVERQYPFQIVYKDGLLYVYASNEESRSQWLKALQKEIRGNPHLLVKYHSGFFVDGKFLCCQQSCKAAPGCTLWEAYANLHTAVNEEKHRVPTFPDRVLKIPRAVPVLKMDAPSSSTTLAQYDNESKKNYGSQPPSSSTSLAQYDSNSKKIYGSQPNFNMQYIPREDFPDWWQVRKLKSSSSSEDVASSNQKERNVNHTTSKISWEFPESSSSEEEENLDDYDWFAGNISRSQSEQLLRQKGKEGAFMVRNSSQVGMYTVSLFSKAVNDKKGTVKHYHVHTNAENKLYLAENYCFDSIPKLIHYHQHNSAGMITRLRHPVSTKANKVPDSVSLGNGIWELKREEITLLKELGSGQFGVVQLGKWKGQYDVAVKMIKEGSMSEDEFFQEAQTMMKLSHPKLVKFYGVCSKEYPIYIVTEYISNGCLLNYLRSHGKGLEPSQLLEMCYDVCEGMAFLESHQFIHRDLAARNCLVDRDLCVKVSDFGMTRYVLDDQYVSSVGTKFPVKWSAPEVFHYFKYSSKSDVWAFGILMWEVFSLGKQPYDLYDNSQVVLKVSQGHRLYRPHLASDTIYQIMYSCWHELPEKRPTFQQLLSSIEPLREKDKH
The assay is described as above. It counts as biochemical. The protocol: as §1

As for `CCN1CCN(c2ccc(Nc3cc(Nc4cccc5c4N(C(C)=O)CC5)ccn3)cc2)CC1` [Compound 1938], the inhibition at 1 µM in assay [1] (read-out: % Inhibition Point 1) is -0.0213%; in assay [1] (read-out: % Inhibition Point 2) it was 0.399%; in assay [1] (read-out: % Inhibition mean), 0.189%; in assay [2] (read-out: % Inhibition Point 1), 19%; in assay [2] (read-out: % Inhibition Point 2), 25%; in assay [2] (read-out: % Inhibition mean), 22%.

(Values after PMC7614683, “A small molecule PI3Kα activator for cardioprotection and neuroregeneration” (Nature, 2023).)
